Source: US10898459B2, “Method of treating chronic kidney disease” (Panion & BF Biotech Inc., priority 2006, dated 2021)
Marks after values point to notes of the source that are not given here.

Key:
[1] = system: patients with end stage renal disease (ESRD) on hemodialysis; assay: Randomized, double-blind, placebo-controlled, dose-ranging study of ferric citrate on serum phosphate, calcium and Ca x PO4; assay type: in vivo, human; settings: for Serum Ca: Linear Regression: N.S.: Not Significant
Protocol: Ferric citrate is supplied in 500 mg capsules, whereas the placebo will be provided in identical-looking capsules (indistinguishable from those containing the active drug); the placebo capsules will contain sorbitol and colorant to match the powder color of the active capsules. The placebo capsule shells will be identical to the active capsule shells.
An non-limiting example of a dosing regimen is provided below. This is not meant to limit the invention as to how an effective amount of ferric citrate is selected, or the form in which it is provided or the frequency of administering the composition per day. The following merely illustrates how ferric citrate and placebo may be administered; e.g., as 500 mg capsules of identical appearance. All patients may receive (in a blinded fashion) 4 capsules with each of three meals, on a daily basis, for 28 days. Patients will be instructed to take the study medication within 10 minutes of finishing their meals (breakfast, lunch, and dinner).
Each patient's participation in the trial lasts for up to 8 weeks: the screening period (approximately 1-2 weeks), a 1-2 week washout, and 4 weeks of treatment with study medication.
The change in serum PO4 concentration at Days 14 and 28 from baseline.
The change in serum calcium concentration at Days 14 and 28 from baseline.
The change in the Ca′PO4 product at Days 14 and 28 from baseline.
Objectives: (1) To determine the effect of ferric citrate at doses of 2, 4 and 6 g daily, administered TID (three times a day), for 28 days on serum phosphate (PO4) levels in patients with end stage renal disease (ESRD). (2) To evaluate the safety of ferric citrate at doses of 2, 4, 6 g daily, administered TID, for 28 days in patients with ESRD.
Study Design: Randomized, double-blind, placebo-controlled, dose-ranging study to assess the effect of ferric citrate on serum phosphate concentrations in patients with ESRD on hemodialysis. Patients are assessed at Study Days 14 and 28 for effectiveness as measured by serum phosphate concentrations. Patients who received one or more doses of study medication are also assessed for safety.
Study Duration: 8 weeks (including the screening period, 2 weeks washout, 4 weeks treatment)
Ferric citrate is administered orally, and is given equally three times a day.

[2] = system: patients with end stage renal disease (ESRD); assay: Open-label extension of Phase II study: serum creatinine level; assay type: in vivo, human; settings: several patients who received 6 g/day
Source text: Glomerular filtration rate (GFR) level correlates with structural kidney damage and is used as a golden standard to measure kidney function. GFR can be estimated by the biomarkers serum creatinine. As renal function deteriorates, kidney lost its function to excrete creatinine effectively and lead to creatinine retention in the body. Therefore, increase of serum creatinine indicates lowering GFR and is an important sign of kidney deterioration.
In an open-label extension of a Phase II clinical study: “randomized, double-blind, placebo-controlled, dose-ranging study of the effects of ferric citrate on serum phosphate in patients with end stage renal disease (ESRD)”, some of the patients were administered 2˜6 g/day of ferric citrate and serum creatinine level was monitored to assess kidney function.

[3] = 2 g/day (N = 31), Day 0 (baseline)
[4] = 4 g/day (N = 32), Day 0 (baseline)
[5] = 6 g/day (N = 32), Day 0 (baseline)
[6] = 6 g/day (N = 32), Day 28, P < 0.05 baseline change vs placebo
[7] = at 0, 2, and 6 gm/day, TID immediately after meals, oral

## ferric citrate
[1]; [3]
  Serum [Ca]: 8.78 ± 0.981 mg/dL
  Serum [PO4]: 7.1 ± 1.23 mg/dL
  [Ca] * [PO4]: 62.9 ± 13.25 (mg/dL)^2
[1]; 2 g/day (N = 31), Day 14
  Serum [Ca]: 9.01 ± 1.232 mg/dL
  Serum [PO4]: 6.7 ± 1.50 mg/dL
  [Ca] * [PO4]: 60.3 ± 16.50 (mg/dL)^2
[1]; 2 g/day (N = 31), Day 28
  Serum [Ca]: 9.00 ± 0.953 mg/dL
  Serum [PO4]: 6.9 ± 2.22 mg/dL
  [Ca] * [PO4]: 61.7 ± 21.25 (mg/dL)^2
[1]; [4]
  Serum [Ca]: 9.02 ± 0.913 mg/dL
  Serum [PO4]: 7.1 ± 1.27 mg/dL
  [Ca] * [PO4]: 63.5 ± 10.69 (mg/dL)^2
[1]; 4 g/day (N = 32), Day 14
  Serum [Ca]: 9.47 ± 0.990 mg/dL
  Serum [PO4]: 6.4 ± 1.56 mg/dL
  [Ca] * [PO4]: 59.9 ± 13.89 (mg/dL)^2
[1]; 4 g/day (N = 32), Day 28
  Serum [Ca]: 9.29 ± 0.960 mg/dL
  Serum [PO4]: 6.0 ± 1.33 mg/dL
  [Ca] * [PO4]: 55.4 ± 13.36 (mg/dL)^2
[1]; [5]
  Serum [Ca]: 8.99 ± 0.812 mg/dL
  Serum [PO4]: 7.3 ± 1.33 mg/dL
  [Ca] * [PO4]: 65.8 ± 12.19 (mg/dL)^2
[1]; 6 g/day (N = 32), Day 14
  Serum [Ca]: 9.13 ± 0.909 mg/dL
  Serum [PO4]: 6.3 ± 1.72 mg/dL
  [Ca] * [PO4]: 57.5 ± 16.27 (mg/dL)^2
[1]; 6 g/day (N = 32), Day 28
  Serum [Ca]: 9.26 ± 0.865 mg/dL
[1]; [6]
  Serum [PO4]: 5.8 ± 1.76 mg/dL
  [Ca] * [PO4]: 54.1 ± 17.68* (mg/dL)^2
[1]; 6 gm/day dose at both 14 and 28 days
  change in Ca*PO4 levels: decreased and were statistically significant
[1]; Day 0
  Serum Ca: Dose Response: No
[1]; Day 14
  Ca × PO4: Linear Regression P: P = 0.0401
  Ca × PO4: Statistical Significant: No
  Serum Ca: Statistical Significant: No
  Serum PO4: Statistical Significant: No
  Serum Ca: Linear Regression: N.S.
[1]; Day 14, placebo, 2, 4, 6 g/day
  Ca × PO4: Dose Response: Yes
  Serum Ca: Dose Response: No
  Serum PO4: Dose Response: No
[1]; Day 28
  Ca × PO4: Linear Regression P: P = 0.0158
  Ca × PO4: Statistical Significant: Yes (6 g/day)
  Serum Ca: Statistical Significant: No
  Serum PO4: Linear Regression P: P = 0.0073
  Serum PO4: Statistical Significant: Yes (6 g/day)
  Serum Ca: Linear Regression: N.S.
[1]; Day 28, placebo, 2, 4, 6 g/day
  Ca × PO4: Dose Response: Yes
  Serum Ca: Dose Response: No
  Serum PO4: Dose Response: Yes
[1]; [7]
  change in Ca*PO4: decrease
  change in serum PO4: decrease
[1]; during the 28 days, 2, 4, and 6 gm/day
  change in serum calcium level: No significant change
[1]; patients with ESRD
  ability to lower the serum phosphate levels: demonstrated
[2]
  serum creatinine level: trend of decreased serum creatinine level
